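Test compounds were applied to cells in 96-well plates for 48 hours at 5 doses. At the GI50, growth is halved. TGI: concentration producing complete growth inhibition.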
How the values were obtained:
Test in all cases: NCI tumour cell line growth inhibition, 48 h; in the data active means GI50 below about 0.43 µM; inactive means the rest
OVCAR-5 ovarian = test system: OVCAR-5 ovarian
SF-539 CNS = test system: SF-539 CNS
RXF 393 renal = test system: RXF 393 renal
CAKI-1 renal = test system: CAKI-1 renal
HCT-116 colon = test system: HCT-116 colon
SNB-75 CNS = test system: SNB-75 CNS
OVCAR-8 ovarian = test system: OVCAR-8 ovarian
NCI-H226 lung = test system: NCI-H226 lung
NCI-H522 lung = test system: NCI-H522 lung
LOX IMVI melanoma = test system: LOX IMVI melanoma
SF-295 CNS = test system: SF-295 CNS
SK-OV-3 ovarian = test system: SK-OV-3 ovarian
HT29 colon = test system: HT29 colon
MALME-3M melanoma = test system: MALME-3M melanoma
DLD-1 colon = test system: DLD-1 colon
HCC-2998 colon = test system: HCC-2998 colon
NCI-H23 lung = test system: NCI-H23 lung
SW-620 colon = test system: SW-620 colon
K-562 leukemia = test system: K-562 leukemia
DU-145 prostate = test system: DU-145 prostate
KM20L2 colon = test system: KM20L2 colon
A498 renal = test system: A498 renal
COLO 205 colon = test system: COLO 205 colon
TK-10 renal = test system: TK-10 renal
HOP-92 NSCLC = test system: HOP-92 NSCLC
ACHN renal = test system: ACHN renal
SR leukemia = test system: SR leukemia
SN12C renal = test system: SN12C renal
SNB-78 CNS = test system: SNB-78 CNS
IGROV1 ovarian = test system: IGROV1 ovarian
SK-MEL-28 melanoma = test system: SK-MEL-28 melanoma
M19-MEL melanoma = test system: M19-MEL melanoma
SK-MEL-5 melanoma = test system: SK-MEL-5 melanoma
XF 498 CNS = test system: XF 498 CNS
LXFL 529 NSCLC = test system: LXFL 529 NSCLC
SNB-19 CNS = test system: SNB-19 CNS
KM12 colon = test system: KM12 colon
UO-31 renal = test system: UO-31 renal
M14 melanoma = test system: M14 melanoma
MOLT-4 leukemia = test system: MOLT-4 leukemia
U251 CNS = test system: U251 CNS
NCI-H460 lung = test system: NCI-H460 lung
OVCAR-4 ovarian = test system: OVCAR-4 ovarian
786-0 renal = test system: 786-0 renal
UACC-62 melanoma = test system: UACC-62 melanoma
HOP-18 NSCLC = test system: HOP-18 NSCLC
HCT-15 colon = test system: HCT-15 colon
RPMI-8226 leukemia = test system: RPMI-8226 leukemia
HL-60(TB) leukemia = test system: HL-60(TB) leukemia
OVCAR-3 ovarian = test system: OVCAR-3 ovarian
UACC-257 melanoma = test system: UACC-257 melanoma
CCRF-CEM leukemia = test system: CCRF-CEM leukemia
A549 NSCLC = test system: A549 NSCLC
SK-MEL-2 melanoma = test system: SK-MEL-2 melanoma
SF-268 CNS = test system: SF-268 CNS
EKVX NSCLC = test system: EKVX NSCLC
DMS 114 small cell lung = test system: DMS 114 small cell lung
DMS 273 small cell lung = test system: DMS 273 small cell lung
HOP-62 NSCLC = test system: HOP-62 NSCLC
RXF-631 renal = test system: RXF-631 renal

C=CCOCCCCC(C(C)=O)C(=O)OC (configuration not stated)
> 100 µM: TGI (OVCAR-5 ovarian) | TGI (SF-539 CNS) | TGI (RXF 393 renal) | TGI (CAKI-1 renal) | TGI (HCT-116 colon) | TGI (SNB-75 CNS) | TGI (OVCAR-8 ovarian) | TGI (NCI-H226 lung) | TGI (NCI-H522 lung) | TGI (LOX IMVI melanoma) | TGI (SF-295 CNS) | TGI (SK-OV-3 ovarian) | TGI (HT29 colon) | TGI (MALME-3M melanoma) | TGI (DLD-1 colon) | TGI (HCC-2998 colon) | TGI (NCI-H23 lung) | TGI (SW-620 colon) | TGI (K-562 leukemia) | TGI (DU-145 prostate) | TGI (KM20L2 colon) | TGI (A498 renal) | TGI (COLO 205 colon) | TGI (TK-10 renal) | TGI (HOP-92 NSCLC) | TGI (ACHN renal) | TGI (SR leukemia) | TGI (SN12C renal) | TGI (SNB-78 CNS) | TGI (IGROV1 ovarian) | TGI (SK-MEL-28 melanoma) | TGI (M19-MEL melanoma) | TGI (SK-MEL-5 melanoma) | TGI (XF 498 CNS) | TGI (LXFL 529 NSCLC) | TGI (SNB-19 CNS) | TGI (KM12 colon) | TGI (UO-31 renal) | TGI (M14 melanoma) | TGI (MOLT-4 leukemia) | TGI (U251 CNS) | TGI (NCI-H460 lung) | TGI (OVCAR-4 ovarian) | TGI (786-0 renal) | TGI (UACC-62 melanoma) | TGI (HOP-18 NSCLC) | TGI (HCT-15 colon) | TGI (RPMI-8226 leukemia) | TGI (HL-60(TB) leukemia) | TGI (OVCAR-3 ovarian) | TGI (UACC-257 melanoma) | TGI (CCRF-CEM leukemia) | TGI (A549 NSCLC) | TGI (SK-MEL-2 melanoma) | TGI (SF-268 CNS)

O=c1/c(=C/c2ccco2)sc2nc3ccccc3n12
inactive: GI50 (SF-539 CNS) > 100 µM | GI50 (RXF 393 renal) > 10 µM | GI50 (CAKI-1 renal) > 100 µM | GI50 (HCT-116 colon) > 100 µM | GI50 (SNB-75 CNS) > 10 µM | GI50 (OVCAR-8 ovarian) > 100 µM | GI50 (NCI-H226 lung) > 100 µM | GI50 (NCI-H522 lung) > 100 µM | GI50 (LOX IMVI melanoma) > 100 µM | GI50 (SF-295 CNS) > 100 µM | GI50 (HT29 colon) > 100 µM | GI50 (MALME-3M melanoma) > 100 µM | GI50 (DLD-1 colon) > 100 µM | GI50 (HCC-2998 colon) > 100 µM | GI50 (EKVX NSCLC) > 10 µM | GI50 (NCI-H23 lung) > 100 µM | GI50 (SW-620 colon) > 100 µM | GI50 (K-562 leukemia) > 100 µM | GI50 (A498 renal) > 100 µM | GI50 (TK-10 renal) > 10 µM | GI50 (DMS 114 small cell lung) > 100 µM | GI50 (ACHN renal) > 100 µM | GI50 (SNB-78 CNS) > 100 µM | GI50 (IGROV1 ovarian) > 100 µM | GI50 (SK-MEL-28 melanoma) > 100 µM | GI50 (M19-MEL melanoma) > 100 µM | GI50 (SK-MEL-5 melanoma) > 100 µM | GI50 (XF 498 CNS) > 100 µM | GI50 (LXFL 529 NSCLC) > 100 µM | GI50 (SNB-19 CNS) > 100 µM | GI50 (M14 melanoma) > 100 µM | GI50 (MOLT-4 leukemia) > 100 µM | GI50 (DMS 273 small cell lung) > 10 µM | GI50 (NCI-H460 lung) > 100 µM | GI50 (OVCAR-4 ovarian) > 100 µM | GI50 (786-0 renal) > 100 µM | GI50 (UACC-62 melanoma) > 100 µM | GI50 (RPMI-8226 leukemia) > 100 µM | GI50 (HL-60(TB) leukemia) > 100 µM | GI50 (OVCAR-3 ovarian) > 100 µM | GI50 (UACC-257 melanoma) > 100 µM | GI50 (CCRF-CEM leukemia) > 100 µM | GI50 (A549 NSCLC) > 100 µM | GI50 (SK-MEL-2 melanoma) > 100 µM | GI50 (RXF-631 renal) > 100 µM
> 10 µM: TGI (OVCAR-5 ovarian) | TGI (KM20L2 colon) | TGI (HOP-92 NSCLC) | TGI (SR leukemia) | TGI (SN12C renal) | TGI (UO-31 renal) | TGI (U251 CNS) | TGI (HCT-15 colon) | TGI (SF-268 CNS)
> 100 µM: TGI (SF-539 CNS) | TGI (RXF 393 renal) | TGI (CAKI-1 renal) | TGI (HCT-116 colon) | TGI (SNB-75 CNS) | TGI (OVCAR-8 ovarian) | TGI (NCI-H226 lung) | TGI (NCI-H522 lung) | TGI (LOX IMVI melanoma) | TGI (SF-295 CNS) | TGI (SK-OV-3 ovarian) | TGI (HT29 colon) | TGI (MALME-3M melanoma) | TGI (DLD-1 colon) | TGI (HCC-2998 colon) | TGI (EKVX NSCLC) | TGI (NCI-H23 lung) | TGI (SW-620 colon) | TGI (K-562 leukemia) | TGI (A498 renal) | TGI (COLO 205 colon) | TGI (TK-10 renal) | TGI (DMS 114 small cell lung) | TGI (ACHN renal) | TGI (SNB-78 CNS) | TGI (IGROV1 ovarian) | TGI (SK-MEL-28 melanoma) | TGI (M19-MEL melanoma) | TGI (SK-MEL-5 melanoma) | TGI (XF 498 CNS) | TGI (LXFL 529 NSCLC) | TGI (SNB-19 CNS) | TGI (KM12 colon) | TGI (M14 melanoma) | TGI (MOLT-4 leukemia) | TGI (DMS 273 small cell lung) | TGI (NCI-H460 lung) | TGI (OVCAR-4 ovarian) | TGI (786-0 renal) | TGI (UACC-62 melanoma) | TGI (HOP-18 NSCLC) | TGI (RPMI-8226 leukemia) | TGI (HL-60(TB) leukemia) | TGI (OVCAR-3 ovarian) | TGI (UACC-257 melanoma) | TGI (HOP-62 NSCLC) | TGI (CCRF-CEM leukemia) | TGI (A549 NSCLC) | TGI (SK-MEL-2 melanoma) | TGI (RXF-631 renal)

COC(=O)/C=C/c1cc(OC)c(OC)c(OC)c1
> 100 µM: TGI (SF-539 CNS) | TGI (RXF 393 renal) | TGI (CAKI-1 renal) | TGI (HCT-116 colon) | TGI (SNB-75 CNS) | TGI (OVCAR-8 ovarian) | TGI (NCI-H226 lung) | TGI (NCI-H522 lung) | TGI (LOX IMVI melanoma) | TGI (SF-295 CNS) | TGI (SK-OV-3 ovarian) | TGI (HT29 colon) | TGI (MALME-3M melanoma) | TGI (DLD-1 colon) | TGI (HCC-2998 colon) | TGI (EKVX NSCLC) | TGI (NCI-H23 lung) | TGI (SW-620 colon) | TGI (KM20L2 colon) | TGI (COLO 205 colon) | TGI (TK-10 renal) | TGI (DMS 114 small cell lung) | TGI (HOP-92 NSCLC) | TGI (ACHN renal) | TGI (SR leukemia) | TGI (SN12C renal) | TGI (IGROV1 ovarian) | TGI (SK-MEL-28 melanoma) | TGI (M19-MEL melanoma) | TGI (SK-MEL-5 melanoma) | TGI (XF 498 CNS) | TGI (LXFL 529 NSCLC) | TGI (SNB-19 CNS) | TGI (KM12 colon) | TGI (UO-31 renal) | TGI (M14 melanoma) | TGI (MOLT-4 leukemia) | TGI (DMS 273 small cell lung) | TGI (NCI-H460 lung) | TGI (OVCAR-4 ovarian) | TGI (786-0 renal) | TGI (UACC-62 melanoma) | TGI (HOP-18 NSCLC) | TGI (HCT-15 colon) | TGI (HL-60(TB) leukemia) | TGI (OVCAR-3 ovarian) | TGI (UACC-257 melanoma) | TGI (HOP-62 NSCLC) | TGI (CCRF-CEM leukemia) | TGI (A549 NSCLC) | TGI (SK-MEL-2 melanoma) | TGI (RXF-631 renal) | TGI (SF-268 CNS)

Reference: PubChem BioAssay (NCI)
